These results are taken from patent US20230093861A1, “RAPAMYCIN ANALOGS AS MTOR INHIBITORS” (Revolution Medicines, Inc., priority 2017, published 2023).

The test system of one assay is P-P70S6K (T389). Nature of the assay: Cell based AlphaLISA assay, inhibition of P-P70S6K (T389) (mTORC1 substrate phosphorylation) in MDA-MB-468 cells. Conditions: Homo sapiens, 4 h, AlphaLISA, two to four hours at 37° C., read-out: pIC50 for Inhibition of mTORC1 and mTORC2 Substrate Phosphorylation, P-P70S6K-(T389) (converted). In a few lines:
(§1)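 Cells are exposed to inhibitor, then the assay buffer is taken off and kit lysis buffer added. Lysates undergo AlphaLISA SureFire Ultra detection in duplicate.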

A further assay concerns P-4E-BP1 (T37/46). Kind of assay: Cell based AlphaLISA assay, inhibition of P-4E-BP1 (T37/46) (mTORC1 substrate phosphorylation) in MDA-MB-468 cells. The note with it: Homo sapiens, MDA-MB-468, 4 h, AlphaLISA, two to four hours at 37° C., read-out: pIC50 for Inhibition of mTORC1 and mTORC2 Substrate Phosphorylation, P-4E-BP1-(T37/46) (converted). In a few lines:
as §1

The test system of the next assay is P-Akt (S473). Nature of the assay: Cell based AlphaLISA assay, inhibition of P-Akt (S473) (mTORC2 substrate phosphorylation) in MDA-MB-468 cells. Conditions: Homo sapiens, MDA-MB-468, 4 h, AlphaLISA, two to four hours at 37° C., read-out: pIC50 for Inhibition of mTORC1 and mTORC2 Substrate Phosphorylation, p-AKT 1/2/3 -(S473) (converted). In a few lines: as §1
(In general: Bead proximity is the source of the signal in Alpha formats.)

A value given as a limit tells only on which side of the number the result lay.

`CO[C@H]1C[C@@H]2CC[C@@H](C)[C@@](O)(O2)C(=O)C(=O)N2CCCC[C@H]2C(=O)O[C@H]([C@H](C)C[C@@H]2CC[C@H](n3cc(COC(=O)NCCOCCOCCOCCC(=O)NCCOCCOCCOCCOCCC(=O)NCCCCn4nc(-c5cc6cc(O)ccc6[nH]5)c5c(N)ncnc54)nn3)[C@H](OC)C2)CC(=O)[C@H](C)/C=C(\C)[C@@H](O)[C@@H](OC)C(=O)[C@H](C)C[C@H](C)/C=C/C=C/C=C/1C` [Example 126]: the IC50 was 0.001 to 0.01 µM in the assay on P-P70S6K (T389), 0.00316 to 0.0316 µM in the assay with P-4E-BP1 (T37/46) and 0.0316 to 1 µM in the assay on P-Akt (S473).

For `CO[C@H]1C[C@@H]2CC[C@@H](C)[C@@](O)(O2)C(=O)C(=O)N2CCCC[C@H]2C(=O)O[C@H]([C@H](C)C[C@@H]2CC[C@H](n3cc(COC(=O)NCCOCCOCCOCCOCCC(=O)NCCOCCOCCOCCOCCC(=O)NCCCCn4nc(-c5cc6cc(O)ccc6[nH]5)c5c(N)ncnc54)nn3)[C@H](OC)C2)CC(=O)[C@H](C)/C=C(\C)[C@@H](O)[C@@H](OC)C(=O)[C@H](C)C[C@H](C)/C=C/C=C/C=C/1C` [Example 127], the IC50 with P-P70S6K (T389) was 0.001 to 0.01 µM; with P-4E-BP1 (T37/46), 0.00316 to 0.0316 µM; in the assay on P-Akt (S473), 0.0316 to 1 µM.

With `CO[C@H]1C[C@@H]2CC[C@@H](C)[C@@](O)(O2)C(=O)C(=O)N2CCCC[C@H]2C(=O)O[C@H]([C@H](C)C[C@@H]2CC[C@H](n3cc(CCCC(=O)NCCOCCOCCOCCC(=O)NCCOCCOCCC(=O)NCCCCn4nc(-c5ccc6oc(N)nc6c5)c5c(N)ncnc54)nn3)[C@H](OC)C2)CC(=O)[C@H](C)/C=C(\C)[C@@H](O)[C@@H](OC)C(=O)[C@H](C)C[C@H](C)/C=C/C=C/C=C/1C` [Example 128], the IC50 with P-P70S6K (T389) is 0.001 to 0.01 µM; with P-4E-BP1 (T37/46), 0.00316 to 0.0316 µM; with P-Akt (S473) it was 0.0316 to 1 µM.

For `CO[C@H]1C[C@@H]2CC[C@@H](C)[C@@](O)(O2)C(=O)C(=O)N2CCCC[C@H]2C(=O)O[C@H]([C@H](C)C[C@@H]2CC[C@H](n3cc(CCCC(=O)NCCOCCOCCOCCC(=O)NCCOCCOCCC(=O)NCCCCn4nc(-c5cc6cc(O)ccc6[nH]5)c5c(N)ncnc54)nn3)[C@H](OC)C2)CC(=O)[C@H](C)/C=C(\C)[C@@H](O)[C@@H](OC)C(=O)[C@H](C)C[C@H](C)/C=C/C=C/C=C/1C` [Example 129], the figures for the IC50 with P-P70S6K (T389), in the assay with P-4E-BP1 (T37/46) and in the assay on P-Akt (S473) were 0.001 to 0.01 µM, 0.0316 to 1 µM and above 1 µM, respectively.

As for `CO[C@H]1C[C@@H]2CC[C@@H](C)[C@@](O)(O2)C(=O)C(=O)N2CCCC[C@H]2C(=O)O[C@H]([C@H](C)C[C@@H]2CC[C@H](n3cc(CCCC(=O)NCCOCCOCCOCCC(=O)NCCOCCOCCOCCC(=O)NCCCCn4nc(-c5ccc6oc(N)nc6c5)c5c(N)ncnc54)nn3)[C@H](OC)C2)CC(=O)[C@H](C)/C=C(\C)[C@@H](O)[C@@H](OC)C(=O)[C@H](C)C[C@H](C)/C=C/C=C/C=C/1C` [Example 130], the figures for the IC50 with P-P70S6K (T389), with P-4E-BP1 (T37/46) and in the assay on P-Akt (S473) were 0.001 to 0.01 µM, 0.00316 to 0.0316 µM and 0.00316 to 0.0316 µM, respectively.

On to `CO[C@H]1C[C@@H]2CC[C@@H](C)[C@@](O)(O2)C(=O)C(=O)N2CCCC[C@H]2C(=O)O[C@H]([C@H](C)C[C@@H]2CC[C@H](n3cc(CCCC(=O)NCCOCCOCCOCCC(=O)NCCOCCOCCOCCC(=O)NCCCCn4nc(-c5cc6cc(O)ccc6[nH]5)c5c(N)ncnc54)nn3)[C@H](OC)C2)CC(=O)[C@H](C)/C=C(\C)[C@@H](O)[C@@H](OC)C(=O)[C@H](C)C[C@H](C)/C=C/C=C/C=C/1C` [Example 131], for which the IC50 is 0.001 to 0.01 µM in the assay on P-P70S6K (T389), 0.0316 to 1 µM in the assay on P-4E-BP1 (T37/46) and 0.0316 to 1 µM in the assay on P-Akt (S473).

With `CO[C@H]1C[C@@H]2CC[C@@H](C)[C@@](O)(O2)C(=O)C(=O)N2CCCC[C@H]2C(=O)O[C@H]([C@H](C)C[C@@H]2CC[C@H](n3cc(CCCC(=O)NCCOCCOCCOCCC(=O)NCCOCCOCCOCCOCCC(=O)NCCCCn4nc(-c5ccc6oc(N)nc6c5)c5c(N)ncnc54)nn3)[C@H](OC)C2)CC(=O)[C@H](C)/C=C(\C)[C@@H](O)[C@@H](OC)C(=O)[C@H](C)C[C@H](C)/C=C/C=C/C=C/1C` [Example 132], the IC50 in the assay on P-P70S6K (T389) is 0.001 to 0.01 µM; in the assay on P-4E-BP1 (T37/46) it was 0.00316 to 0.0316 µM; in the assay on P-Akt (S473), 0.0316 to 1 µM.

`CO[C@H]1C[C@@H]2CC[C@@H](C)[C@@](O)(O2)C(=O)C(=O)N2CCCC[C@H]2C(=O)O[C@H]([C@H](C)C[C@@H]2CC[C@H](n3cc(CCCC(=O)NCCOCCOCCOCCC(=O)NCCOCCOCCOCCOCCC(=O)NCCCCn4nc(-c5cc6cc(O)ccc6[nH]5)c5c(N)ncnc54)nn3)[C@H](OC)C2)CC(=O)[C@H](C)/C=C(\C)[C@@H](O)[C@@H](OC)C(=O)[C@H](C)C[C@H](C)/C=C/C=C/C=C/1C` [Example 133]: the IC50 is 0.001 to 0.01 µM in the assay on P-P70S6K (T389), 0.00316 to 0.0316 µM in the assay with P-4E-BP1 (T37/46) and 0.0316 to 1 µM in the assay with P-Akt (S473).

Consider `CO[C@H]1C[C@@H]2CC[C@@H](C)[C@@](O)(O2)C(=O)C(=O)N2CCCC[C@H]2C(=O)O[C@H]([C@H](C)C[C@@H]2CC[C@H](n3cc(CCCC(=O)NCCOCCOCCOCCOCCC(=O)NCCOCCOCCOCCOCCC(=O)NCCCCn4nc(-c5ccc6oc(N)nc6c5)c5c(N)ncnc54)nn3)[C@H](OC)C2)CC(=O)[C@H](C)/C=C(\C)[C@@H](O)[C@@H](OC)C(=O)[C@H](C)C[C@H](C)/C=C/C=C/C=C/1C` [Example 134], for which the IC50 in the assay on P-P70S6K (T389) was 0.001 to 0.01 µM; in the assay with P-4E-BP1 (T37/46), 0.00316 to 0.0316 µM; in the assay with P-Akt (S473), 0.00316 to 0.0316 µM.

Turning to `CO[C@H]1C[C@@H]2CC[C@@H](C)[C@@](O)(O2)C(=O)C(=O)N2CCCC[C@H]2C(=O)O[C@H]([C@H](C)C[C@@H]2CC[C@H](n3cc(CCCC(=O)NCCOCCOCCOCCOCCC(=O)NCCOCCOCCOCCOCCC(=O)NCCCCn4nc(-c5cc6cc(O)ccc6[nH]5)c5c(N)ncnc54)nn3)[C@H](OC)C2)CC(=O)[C@H](C)/C=C(\C)[C@@H](O)[C@@H](OC)C(=O)[C@H](C)C[C@H](C)/C=C/C=C/C=C/1C` [Example 135], the figures for the IC50 in the assay on P-P70S6K (T389), with P-4E-BP1 (T37/46) and in the assay with P-Akt (S473) were 0.001 to 0.01 µM, 0.00316 to 0.0316 µM and 0.0316 to 1 µM, respectively.

For `CO[C@H]1C[C@@H]2CC[C@@H](C)[C@@](O)(O2)C(=O)C(=O)N2CCCC[C@H]2C(=O)O[C@H]([C@H](C)C[C@@H]2CC[C@H](n3cc(-c4cccc(C(=O)NCCOCCOCCOCCC(=O)NCCOCCOCCC(=O)NCCCCn5nc(-c6ccc7oc(N)nc7c6)c6c(N)ncnc65)c4)nn3)[C@H](OC)C2)CC(=O)[C@H](C)/C=C(\C)[C@@H](O)[C@@H](OC)C(=O)[C@H](C)C[C@H](C)/C=C/C=C/C=C/1C` [Example 136], the IC50 with P-P70S6K (T389) was 0.001 to 0.01 µM; with P-4E-BP1 (T37/46), 0.00316 to 0.0316 µM; in the assay with P-Akt (S473), 0.0316 to 1 µM.

In the case of `CO[C@H]1C[C@@H]2CC[C@@H](C)[C@@](O)(O2)C(=O)C(=O)N2CCCC[C@H]2C(=O)O[C@H]([C@H](C)C[C@@H]2CC[C@H](n3cc(-c4cccc(C(=O)NCCOCCOCCOCCC(=O)NCCOCCOCCOCCC(=O)NCCCCn5nc(-c6ccc7oc(N)nc7c6)c6c(N)ncnc65)c4)nn3)[C@H](OC)C2)CC(=O)[C@H](C)/C=C(\C)[C@@H](O)[C@@H](OC)C(=O)[C@H](C)C[C@H](C)/C=C/C=C/C=C/1C` [Example 137], the IC50 in the assay with P-P70S6K (T389) is 0.001 to 0.01 µM; in the assay with P-4E-BP1 (T37/46), 0.00316 to 0.0316 µM; with P-Akt (S473) it was 0.0316 to 1 µM.
